Molecules are shown by their SMILES.

The first test has as its system HCC-78. The test is described as follows: relative viability (nuclei count vs DMSO), 5 days (fraction); higher = more cells survive. Conditions: first compound 2.53 µM. Put shortly:
(§1)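 Nuclei were stained with Hoechst during a one-step fixation (final 0.05% Triton X-100, 1% formaldehyde, 1 ug/ml Hoechst) carried out 5 days after dosing, then counted on 4× images. The cells, lung cancer lines in 1536-well plates, had been dosed by pin tool the day after seeding with one drug alone or a fixed anchor-drug dose plus five library-drug doses (not always all listed) in √10 steps. Relative viability is the nuclei count in treated wells divided by that in vehicle wells, and each value is the median of duplicate plates.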
On to `CCCCCCCCCCCC1=C(O)C(=O)C=C(O)C1=O` [Embelin] + Cc1nc(Nc2ncc(C(=O)Nc3c(C)cccc3Cl)s2)cc(N2CCN(CCO)CC2)n1 [Dasatinib] (partner 0.075 µM), for which the relative viability was determined as 0.353.
On the same count and under the same terms, next, `CCCCCCCCCCCC1=C(O)C(=O)C=C(O)C1=O` [Embelin] + NC(=O)Nc1cc(-c2cccc(F)c2)sc1C(=O)N[C@H]1CCCNC1 [AZD7762] (partner 0.2 µM): 0.661; `CCCCCCCCCCCC1=C(O)C(=O)C=C(O)C1=O` [Embelin] + CC(=O)c1c(C)c2cnc(Nc3ccc(N4CCNCC4)cn3)nc2n(C2CCCC2)c1=O [Palbociclib] (partner 0.5 µM): 0.558.

The test is the same for the next values; noted with them: first compound 8 µM.
`CCCCCCCCCCCC1=C(O)C(=O)C=C(O)C1=O` [Embelin] + N=C(N)NC(=N)NCCc1ccccc1 [Phenformin] (partner 250 µM) gave a relative viability of 0.929.
Still for that read-out and setting: the result for `CCCCCCCCCCCC1=C(O)C(=O)C=C(O)C1=O` [Embelin] + Cc1nc(Nc2ncc(C(=O)Nc3c(C)cccc3Cl)s2)cc(N2CCN(CCO)CC2)n1 [Dasatinib] (partner 0.075 µM) reads 0.451; that for `CCCCCCCCCCCC1=C(O)C(=O)C=C(O)C1=O` [Embelin] + NC(=O)Nc1cc(-c2cccc(F)c2)sc1C(=O)N[C@H]1CCCNC1 [AZD7762] (partner 0.2 µM), 0.647; that for `CCCCCCCCCCCC1=C(O)C(=O)C=C(O)C1=O` [Embelin] + CC(=O)c1c(C)c2cnc(Nc3ccc(N4CCNCC4)cn3)nc2n(C2CCCC2)c1=O [Palbociclib] (partner 0.5 µM), 0.48.

The next test deals with NCI-H358. Described as above. Conditions: first compound 0.08 µM. The method in brief:
as §1
`CCCCCCCCCCCC1=C(O)C(=O)C=C(O)C1=O` [Embelin] + N=C(N)NC(=N)NCCc1ccccc1 [Phenformin] (partner 250 µM): the relative viability was determined as 0.322.
The same measure, in the same setting: the result for `CCCCCCCCCCCC1=C(O)C(=O)C=C(O)C1=O` [Embelin] + CCNC(=O)c1noc(-c2cc(C(C)C)c(O)cc2O)c1-c1ccc(CN2CCOCC2)cc1 [Luminespib] (partner 0.01 µM) reads 0.464; that for `CCCCCCCCCCCC1=C(O)C(=O)C=C(O)C1=O` [Embelin] + Cc1nc(Nc2ncc(C(=O)Nc3c(C)cccc3Cl)s2)cc(N2CCN(CCO)CC2)n1 [Dasatinib] (partner 0.075 µM), 0.205.
The same measure, in the same setting: next, `CCCCCCCCCCCC1=C(O)C(=O)C=C(O)C1=O` [Embelin] + NC(=O)Nc1cc(-c2cccc(F)c2)sc1C(=O)N[C@H]1CCCNC1 [AZD7762] (partner 0.2 µM): 0.604; `CCCCCCCCCCCC1=C(O)C(=O)C=C(O)C1=O` [Embelin] + CC(=O)c1c(C)c2cnc(Nc3ccc(N4CCNCC4)cn3)nc2n(C2CCCC2)c1=O [Palbociclib] (partner 0.5 µM): 0.133.

Staying with this test, now noted: first compound 0.8 µM.
`CCCCCCCCCCCC1=C(O)C(=O)C=C(O)C1=O` [Embelin] + N=C(N)NC(=N)NCCc1ccccc1 [Phenformin] (partner 250 µM): the relative viability worked out at 0.398.
The same measure, in the same setting: the result for `CCCCCCCCCCCC1=C(O)C(=O)C=C(O)C1=O` [Embelin] + CCNC(=O)c1noc(-c2cc(C(C)C)c(O)cc2O)c1-c1ccc(CN2CCOCC2)cc1 [Luminespib] (partner 0.01 µM) reads 0.447; that for `CCCCCCCCCCCC1=C(O)C(=O)C=C(O)C1=O` [Embelin] + Cc1nc(Nc2ncc(C(=O)Nc3c(C)cccc3Cl)s2)cc(N2CCN(CCO)CC2)n1 [Dasatinib] (partner 0.075 µM), 0.136; that for `CCCCCCCCCCCC1=C(O)C(=O)C=C(O)C1=O` [Embelin] + NC(=O)Nc1cc(-c2cccc(F)c2)sc1C(=O)N[C@H]1CCCNC1 [AZD7762] (partner 0.2 µM), 0.739.
The compound `CCCCCCCCCCCC1=C(O)C(=O)C=C(O)C1=O` [Embelin] + CC(=O)c1c(C)c2cnc(Nc3ccc(N4CCNCC4)cn3)nc2n(C2CCCC2)c1=O [Palbociclib] (partner 0.5 µM) returned a relative viability of 0.161.

Staying with this test, now noted: first compound 2.53 µM.
Consider `CCCCCCCCCCCC1=C(O)C(=O)C=C(O)C1=O` [Embelin] + N=C(N)NC(=N)NCCc1ccccc1 [Phenformin] (partner 250 µM), for which the relative viability was 0.468.
The same measure, in the same setting: next, `CCCCCCCCCCCC1=C(O)C(=O)C=C(O)C1=O` [Embelin] + CCNC(=O)c1noc(-c2cc(C(C)C)c(O)cc2O)c1-c1ccc(CN2CCOCC2)cc1 [Luminespib] (partner 0.01 µM): 0.44; `CCCCCCCCCCCC1=C(O)C(=O)C=C(O)C1=O` [Embelin] + Cc1nc(Nc2ncc(C(=O)Nc3c(C)cccc3Cl)s2)cc(N2CCN(CCO)CC2)n1 [Dasatinib] (partner 0.075 µM): 0.171; `CCCCCCCCCCCC1=C(O)C(=O)C=C(O)C1=O` [Embelin] + NC(=O)Nc1cc(-c2cccc(F)c2)sc1C(=O)N[C@H]1CCCNC1 [AZD7762] (partner 0.2 µM): 0.517.
In the case of `CCCCCCCCCCCC1=C(O)C(=O)C=C(O)C1=O` [Embelin] + CC(=O)c1c(C)c2cnc(Nc3ccc(N4CCNCC4)cn3)nc2n(C2CCCC2)c1=O [Palbociclib] (partner 0.5 µM), the relative viability is 0.141.

Staying with this test, now noted: first compound 8 µM.
For `CCCCCCCCCCCC1=C(O)C(=O)C=C(O)C1=O` [Embelin] + N=C(N)NC(=N)NCCc1ccccc1 [Phenformin] (partner 250 µM), the relative viability stood at 0.36.
On the same count and under the same terms, next, `CCCCCCCCCCCC1=C(O)C(=O)C=C(O)C1=O` [Embelin] + CCNC(=O)c1noc(-c2cc(C(C)C)c(O)cc2O)c1-c1ccc(CN2CCOCC2)cc1 [Luminespib] (partner 0.01 µM): 0.306; `CCCCCCCCCCCC1=C(O)C(=O)C=C(O)C1=O` [Embelin] + Cc1nc(Nc2ncc(C(=O)Nc3c(C)cccc3Cl)s2)cc(N2CCN(CCO)CC2)n1 [Dasatinib] (partner 0.075 µM): 0.162; `CCCCCCCCCCCC1=C(O)C(=O)C=C(O)C1=O` [Embelin] + NC(=O)Nc1cc(-c2cccc(F)c2)sc1C(=O)N[C@H]1CCCNC1 [AZD7762] (partner 0.2 µM): 0.491.
Still for that read-out and setting: the result for `CCCCCCCCCCCC1=C(O)C(=O)C=C(O)C1=O` [Embelin] + CC(=O)c1c(C)c2cnc(Nc3ccc(N4CCNCC4)cn3)nc2n(C2CCCC2)c1=O [Palbociclib] (partner 0.5 µM) reads 0.131.

Source of the values: the supplement of paper PMC10307832.
